Columns and labels:
[1] = tested on: pERK in NCI-H358 cells; assay: Cell-based pERK HTRF assay (pERK inhibition in H358 cells); conditions: 30 min incubation
Outline: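 NCI-H358 cells were seeded at 4×10^4 cells/well in RPMI/10% FBS, then treated next day for 30 min at 0.25% DMSO (9-point, 3-fold series from 75 μM). Lysates were read by HTRF (d2/Eu cryptate antibody pair, 615 nm emission) after 4–24 h at room temperature to give pERK IC50.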

[2] = molecular target: T1, GTP-loaded KRAS4b (amino acids 1-169) G12C/C118S protein (Homo sapiens, UniProt P01116, C118S/G12C); assay: Covalent cysteine 12 modification by MALDI-TOF MS, GTP-loaded KRAS G12C; assay type: binding; conditions: 15 minutes reaction time point
T1 construct: KRAS4b (amino acids 1-169) G12C/C118S protein; made in house
Outline: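 1 μM protein + cpd (1:2.5), HEPES 20 mM/NaCl 150 mM/MgCl2 1 mM pH 7.3, RT, dark, 15 min. Linear MALDI-TOF, sinapinic acid matrix. % mod = modified/(modified + unmodified) peak height.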

Compound	IC50 ([1]; Homo sapiens, NCI-H358, 0.5 h)	GTP-KRAS G12C percent of modification [2]	IC50 [1]
C=CC(=O)N1CC[C@@H](N(C)c2nc(OC[C@@]34CCCN3C[C@H](F)C4)nc3c(F)c(-c4ccc(F)c5sc(N)c(C#N)c45)c(Cl)cc23)[C@@H]1C (atropisomer, axis not shown) [Compound 69]		D (percent of modification <10%)	100 to 1000 nM
C=CC(=O)N1CCC(N(C)c2nc(OC[C@@H]3CCCN3C3CC3)nc3c(F)c(-c4ccc(F)c5sc(N)c(C#N)c45)c(C(F)(F)F)cc23)[C@H]1C (some centres unmarked) [Compound 1]	100 to 1000 nM	C (10%≤percent of modification <50%)	
C=CC(=O)N1C[C@H]2C[C@@H]1CN2c1nc(OC[C@@]23CCCN2C[C@H](F)C3)nc2c(F)c(-c3ccc(F)c4sc(N)c(C#N)c34)c(C(F)(F)F)cc12 [Compound 37]	100 to 1000 nM	D (percent of modification <10%)	
C=CC(=O)N1CC[C@@H](N(CC)c2nc(OC[C@@]34CCCN3C[C@H](F)C4)nc3cc(-c4ccc(F)c5sc(N)c(C#N)c45)c(C#N)cc23)[C@@H]1CC [Compound 40]	100 to 1000 nM	D (percent of modification <10%)	
C=CC(=O)N1CC[C@@H](N(CC)c2nc(OC[C@@]34CCCN3C[C@H](F)C4)nc3cc(-c4ccc(F)c5sc(N)c(C#N)c45)c(F)cc23)[C@@H]1CC [Compound 41]	100 to 1000 nM	D (percent of modification <10%)	
C=CC(=O)N1CC2CC(C1)N2c1nc(OC[C@@]23CCCN2C[C@H](F)C3)nc2c(F)c(-c3ccc(F)c4sc(N)c(C#N)c34)c(C(F)(F)F)cc12 [Compound 46]	100 to 1000 nM	D (percent of modification <10%)	
C=CC(=O)N1CC2CCC(C1)N2c1nc(OC[C@@]23CCCN2C[C@H](F)C3)nc2c(F)c(-c3ccc(F)c4sc(N)c(C#N)c34)c(C(F)(F)F)cc12 [Compound 49]	< 100 nM	D (percent of modification <10%)	
C=CC(=O)N1CC[C@@H](N(CC)c2nc(OC[C@@]34CCCN3C[C@H](F)C4)nc3c(F)c(-c4ccc(F)c5sc(N)c(C#N)c45)ccc23)[C@@H]1CC [Compound 50]	100 to 1000 nM	D (percent of modification <10%)	
C=CC(=O)N1CC[C@@H](N(CC)c2nc(OC[C@@H]3C[C@@H](F)CN3C)nc3c(F)c(-c4ccc(F)c5sc(N)c(C#N)c45)c(C(F)(F)F)cc23)[C@H]1C [Compound 52]		A (percent of modification ≥70%)	< 100 nM
C=CC(=O)N1CC[C@@H](N(C)c2nc(OC[C@@H]3CCCN3C)nc3c(F)c(-c4ccc(F)c5sc(N)c(C#N)c45)c(Cl)cc23)[C@H]1C [Compound 59]		A (percent of modification ≥70%)	< 100 nM
C=CC(=O)N1CC[C@@H](N(CC)c2nc(OC[C@@H]3C[C@@H](F)CN3C)nc3c(F)c(-c4ccc(F)c5sc(N)c(C#N)c45)c(Cl)cc23)[C@H]1C [Compound 60]	< 100 nM	B (50≤percent of modification <70%)	
C=CC(=O)N1CC[C@@H](N(C)c2nc(OC[C@@H]3C[C@@H](F)CN3C)nc3c(F)c(-c4ccc(F)c5sc(N)c(C#N)c45)c(Cl)cc23)[C@H]1C [Compound 61]	< 100 nM	C (10%≤percent of modification <50%)	
C=CC(=O)N1CC[C@@H](N(C)c2nc(OC[C@@H]3C[C@@H](OC)CN3C)nc3c(F)c(-c4ccc(F)c5sc(N)c(C#N)c45)c(Cl)cc23)[C@H]1C [Compound 63, 4-(4-(((2R,3R)-1-acryloyl-2-methylpyrrolidin-3-yl)(methyl)amino)-6-chloro-8-fluoro-2-(((2S,4R)-4-methoxy-1-methylpyrrolidin-2-yl)methoxy)quinazolin-7-yl)-2-amino-7-fluorobenzo[b]thiophene-3-carbonitrile]	< 100 nM	B (50≤percent of modification <70%)	
C=CC(=O)N1CC[C@@H](N(C)c2nc(OC[C@@H]3CC4(CC4)CN3C)nc3c(F)c(-c4ccc(F)c5sc(N)c(C#N)c45)c(Cl)cc23)[C@H]1C [Compound 64]	< 100 nM	B (50≤percent of modification <70%)	
C=CC(=O)N1CC[C@@H](N(CC)c2nc(OC[C@@H]3CC4(CC4)CN3C)nc3c(F)c(-c4ccc(F)c5sc(N)c(C#N)c45)c(C(F)(F)F)cc23)[C@H]1C [Compound 65]	< 100 nM	A (percent of modification ≥70%)	
C=CC(=O)N1CC[C@@H](N(CC)c2nc(OC[C@@H]3CCCN3C)nc3c(F)c(-c4ccc(F)c5sc(N)c(C#N)c45)c(C(F)(F)F)cc23)[C@H]1C [Compound 66]	< 100 nM	A (percent of modification ≥70%)	
C=CC(=O)N1CC[C@@H](N(C)c2nc(OC[C@@H]3CCCN3C)nc3c(F)c(-c4ccc(F)c5sc(N)c(C#N)c45)c(C(F)(F)F)cc23)[C@H]1C [Compound 67]		A (percent of modification ≥70%)	< 100 nM
C=CC(=O)N1CC[C@@H](N(CC)c2nc(OC[C@@H]3C[C@@H](OC)CN3C)nc3c(F)c(-c4ccc(F)c5sc(N)c(C#N)c45)c(Cl)cc23)[C@H]1C [Compound 73]	< 100 nM	C (10%≤percent of modification <50%)	
C=CC(=O)N1CC[C@@H](N(CC)c2nc(OC[C@@H]3CC4(CC4)CN3C)nc3c(F)c(-c4ccc(F)c5sc(N)c(C#N)c45)c(Cl)cc23)[C@H]1C [Compound 75]		A (percent of modification ≥70%)	< 100 nM
C=CC(=O)N1CC[C@@H](N(CC)c2nc(OC[C@@]34CCCN3C[C@H](F)C4)nc3cc(-c4ccc(F)c5sc(N)c(C#N)c45)c(F)cc23)[C@H]1CC [Compound 76]	100 to 1000 nM	B (50≤percent of modification <70%)	
C=CC(=O)N1CC[C@@H](N(CC)c2nc(OC[C@@]34CCCN3C[C@H](F)C4)nc3c(F)c(-c4ccc(F)c5sc(N)c(C#N)c45)c(Cl)cc23)[C@@H]1C [Compound 77]	< 100 nM	A (percent of modification ≥70%)	

Continued, values first:

IC50 ([1]; Homo sapiens, NCI-H358, 0.5 h)	GTP-KRAS G12C percent of modification [2]	IC50 [1]	Compound
< 100 nM	A (percent of modification ≥70%)		C=CC(=O)N1CC[C@@H](N(C)c2nc(OC[C@@]34CCCN3C[C@H](F)C4)nc3c(F)c(-c4ccc(F)c5sc(N)c(C#N)c45)c(Cl)cc23)[C@@H]1C (atropisomer, axis not shown) [Compound 68]
< 100 nM	D (percent of modification <10%)		C=CC(=O)N1CCC(N(C)c2nc(OC[C@@]34CCCN3C[C@H](F)C4)nc3c(F)c(-c4ccc(F)c5sc(N)c(C#N)c45)c(Cl)cc23)[C@H]1CC (some centres unmarked) [Compound 2]
< 100 nM	B (50≤percent of modification <70%)		C=CC(=O)N1CCC(N(C)c2nc(OC[C@@]34CCCN3C[C@H](F)C4)nc3c(F)c(-c4ccc(F)c5sc(N)c(C#N)c45)c(C(F)(F)F)cc23)[C@H]1CC (some centres unmarked) [Compound 3]
< 100 nM	C (10%≤percent of modification <50%)		C=CC(=O)N1CC[C@@H](N(CC)c2nc(OC[C@@]34CCCN3C[C@H](F)C4)nc3c(F)c(-c4ccc(F)c5sc(N)c(C#N)c45)c(C(F)(F)F)cc23)[C@H]1CC [Compound 39]
< 100 nM	A (percent of modification ≥70%)		C=CC(=O)N1CC[C@@H](N(C)c2nc(OC[C@@]34CCCN3C[C@H](F)C4)nc3cc(-c4ccc(F)c5sc(N)c(C#N)c45)c(C#N)cc23)[C@H]1CC [Compound 42]
< 100 nM	B (50≤percent of modification <70%)		C=CC(=O)N1CC[C@@H](N(CC)c2nc(OC[C@@H]3C[C@@H](OC)CN3C)nc3c(F)c(-c4ccc(F)c5sc(N)c(C#N)c45)c(C(F)(F)F)cc23)[C@H]1C [Compound 45, 4-(4-(((2R,3R)-1-acryloyl-2-methylpyrrolidin-3-yl)(ethyl)amino)-8-fluoro-2-(((2S,4R)-4-methoxy-1-methylpyrrolidin-2-yl)methoxy)-6-(trifluoromethyl)quinazolin-7-yl)-2-amino-7-fluorobenzo[b]thiophene-3-carbonitrile]
< 100 nM	A (percent of modification ≥70%)		C=CC(=O)N1CC[C@@H](N(C)c2nc(OC[C@@H]3C[C@@H](F)CN3C)nc3c(F)c(-c4ccc(F)c5sc(N)c(C#N)c45)c(C(F)(F)F)cc23)[C@H]1C [Compound 55]
< 100 nM	C (10%≤percent of modification <50%)		C=CC(=O)N1CC[C@@H](N(CC)c2nc(OC[C@@]34CCCN3C[C@H](F)C4)nc3cc(-c4ccc(F)c5sc(N)c(C#N)c45)c(C#N)cc23)[C@@H]1C [Compound 56]
< 100 nM	C (10%≤percent of modification <50%)		C=CC(=O)N1CC[C@@H](N(CC)c2nc(OC[C@@]34CCCN3C[C@H](F)C4)nc3c(F)c(-c4ccc(F)c5sc(N)c(C#N)c45)ccc23)[C@@H]1C [Compound 57]
< 100 nM	A (percent of modification ≥70%)		C=CC(=O)N1CC[C@@H](N(CC)c2nc(OC[C@@H]3CCCN3C)nc3c(F)c(-c4ccc(F)c5sc(N)c(C#N)c45)c(Cl)cc23)[C@H]1C [Compound 58]

Reference: US20260232666A1, “COMPOSITIONS AND METHODS FOR INHIBITION OF RAS” (TheRas, Inc., priority 2023, published 2026)
